Literature values as cited in patent US20070213388A1, “Acetylcholinesterase Inhibitors and N-Methyl-D-Aspartate Antagonists Useful in the Treatment of Cognitive Disorders” (priority 2004, published 2007).

How the values were obtained:
[1] = rats, i.v. dosing
brain ACh levels = conditions: conscious, freely-moving rats, striatal microdialysis
AChE = biological target: T1, AChE (Rattus norvegicus, UniProt P37136); conditions: rats, after phenserine administration
T1 construct: from tissue; host or cells: rat
T1 sequence (P37136 32-614): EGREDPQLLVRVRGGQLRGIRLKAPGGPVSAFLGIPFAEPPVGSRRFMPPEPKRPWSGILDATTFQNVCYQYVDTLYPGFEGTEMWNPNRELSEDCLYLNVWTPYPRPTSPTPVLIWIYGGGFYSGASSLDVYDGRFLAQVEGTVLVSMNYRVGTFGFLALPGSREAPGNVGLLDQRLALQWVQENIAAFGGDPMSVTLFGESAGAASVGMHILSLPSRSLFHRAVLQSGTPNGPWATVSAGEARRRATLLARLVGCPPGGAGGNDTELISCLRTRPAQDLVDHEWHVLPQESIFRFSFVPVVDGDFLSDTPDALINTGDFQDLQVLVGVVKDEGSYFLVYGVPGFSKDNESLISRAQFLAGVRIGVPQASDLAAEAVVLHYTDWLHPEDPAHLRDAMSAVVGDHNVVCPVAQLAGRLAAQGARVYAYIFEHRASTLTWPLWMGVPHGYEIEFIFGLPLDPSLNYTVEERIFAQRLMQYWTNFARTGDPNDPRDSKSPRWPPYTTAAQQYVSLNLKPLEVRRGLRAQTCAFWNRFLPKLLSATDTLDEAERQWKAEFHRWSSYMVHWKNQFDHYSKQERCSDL

cholinesterase = conditions: see WO 00/248150
[2] = system: cytochrome P450 (CYP 450) isoenzymes; conditions: in vitro
[3] = not given; remark: listed apart in the source
[4] = biological target: neuronal receptors (NMDA receptor); conditions: at -67 mV

Structure (SMILES): CN1CC[C@]2(C)c3cc(OC(=O)Nc4ccccc4)ccc3N(C)C12 (single isomer, unassigned; (-)) [phenserine, (−)-N-phenylcarbamoyl eseroline]
- brain drug levels relative to plasma [1]: 10 fold
- time to peak drug levels [1]: ≤ 5 min
- half-life of brain drug levels ([1]; brain): 8.5 min
- half-life of plasma drug levels ([1]; plasma): 12.6 min
- rise in brain ACh levels (brain ACh levels): greater than 3 fold
- inhibition of AChE (AChE): > 70%

Structure (SMILES): CN1CC[C@@]2(C)c3cc(OC(=O)Nc4ccccc4)ccc3N(C)C12 (single isomer, unassigned; (+)) [(+)-phenserine]
- cholinesterase activity (cholinesterase): lacks cholinesterase activity

Structure (SMILES): CC12CC3CC(C)(C1)CC(N)(C3)C2.Cl [memantine, 1-amino-3,5-dimethyladamantane hydrochloride]
- inhibition of cytochrome P450 (CYP 450) isoenzymes [2]: does not inhibit
- CSF/serum ratio (crosses the blood brain barrier): 0.52
- terminal elimination half-life (humans, oral dose): 60 to 80 h
- water solubility [3]: water soluble
- IC50 [4]: 1400 nM
